Ki and IC50 data for 17 compounds are collected here from patent publication US11130769B2 (Prelude Therapeutics Incorporated, priority 2018, dated 2021).

In one assay the target is MCL-1 (Homo sapiens (Human), UniProt Q07820). The experiment in a line: Cell free Mcl-1:Bim affinity assay (fluorescence polarization competition). The assay is classed as binding. The conditions noted are these: 15 nM MCL-1, 5 nM FITC-Bim, 1 hour at room temperature, read-out: BIM_Ki. In short, it runs like this: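 Fluorescence polarization competition: 10-point 3-fold compound dilutions displaced 5 nM FITC-Bim from 15 nM MCL-1 over 1 h at room temperature. Ki was derived from the fitted IC50 using the Nikolovska-Coleska equation, with percent inhibition normalized to DMSO and positive controls.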
(In general: Polarisation of emitted light reports the rotation of a fluorescent probe.)

For the next assay, the system named is H929 cells. The experiment in a line: Cell viability assay (H929 10 FBS). Type of assay: cell-based. To be noted: Homo sapiens, NCI-H929, 24 hours, read-out: H929_10FBS IC50. In short, it runs like this: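 ATP-based luminescence (CellTiter-Glo or ATPlite 1 Step, 30-60 min at RT) gauged viability of H929 myeloma cells after 24 h compound treatment at 37 °C. Cells plated at 4000 per well in 10% FBS RPMI 1640 supplemented with pyruvate, HEPES and glucose.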

Like-named read-outs stand apart in the source and are kept apart here.

Chain of MCL-1 (Q07820 whole entry): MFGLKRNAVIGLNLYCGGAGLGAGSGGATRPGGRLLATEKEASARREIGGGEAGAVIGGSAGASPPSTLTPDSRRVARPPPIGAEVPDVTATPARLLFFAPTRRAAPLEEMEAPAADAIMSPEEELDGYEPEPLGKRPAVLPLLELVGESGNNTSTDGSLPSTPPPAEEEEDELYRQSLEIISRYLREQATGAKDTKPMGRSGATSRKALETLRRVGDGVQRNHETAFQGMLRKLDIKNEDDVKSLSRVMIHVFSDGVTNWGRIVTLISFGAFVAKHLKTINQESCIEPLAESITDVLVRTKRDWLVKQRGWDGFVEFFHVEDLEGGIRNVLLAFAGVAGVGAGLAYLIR

Take `CCN1C/C=C/[C@H](OC(=O)N2CC(NC)C2)[C@@H]2CC[C@H]2CN2C[C@@]3(CCCc4cc(Cl)ccc43)COc3ccc(cc32)S(=O)(=O)NC(=O)C1(C)C` [Example 223, [(3R,6R,7S,8E,22S)-6′-Chloro-11-ethyl-12,12-dimethyl-13,15,15-trioxo-spiro[20-oxa-15-thia-1,11,14-triazatetracyclo[14.7.2.03,6.019,24]pentacosa-8,16,18,24-tetraene-22,1′-tetralin]-7-yl] 3-(methylamino)azetidine-1-carboxylate]: the Ki at MCL-1 (class symbols) was less than 1 nM. Further, the IC50 (commonly the concentration at which inhibition is half-maximal) in the assay on H929 cells was less than 500 nM.
For the compound `C[C@H]1NC/C=C/[C@H](OC(=O)N(C)C)[C@@H]2CC[C@H]2CN2C[C@@]3(CCCc4cc(Cl)ccc43)COc3ccc(cc32)S(=O)(=O)NC1=O` [Example 146, [(3R,6R,7S,8E,12R,22S)-6′-Chloro-12-methyl-13,15,15-trioxo-spiro[20-oxa-15-thia-1,11,14-triazatetracyclo[14.7.2.03,6.019,24]pentacosa-8,16,18,24-tetraene-22,1′-tetralin]-7-yl] N,N-dimethylcarbamate], the Ki on MCL-1 (class symbols) was 1 to 100 nM. The IC50 in the assay on H929 cells is less than 500 nM.
For `CN(C(=O)O[C@H]1/C=C/COC2(CCC2)C(=O)NS(=O)(=O)c2ccc3c(c2)N(C[C@@H]2CC[C@H]21)C[C@@]1(CCCc2cc(Cl)ccc21)CO3)C1CCOCC1` [Example 236, [(3R,6R,7S,8E,22S)-6′-Chloro-12,12-(1,3-propylene)-13,15,15-trioxo-spiro[11,20-dioxa-15-thia-1,14-diazatetracyclo[14.7.2.03,6.019,24]pentacosa-8,16,18,24-tetraene-22,1′-tetralin]-7-yl] N-methyl-N-tetrahydropyran-4-yl-carbamate], the Ki at MCL-1 (class symbols) was less than 1 nM. The half-maximal inhibitory concentration (IC50) in the assay on H929 cells is less than 500 nM.
For `O=C1NS(=O)(=O)c2ccc3c(c2)N(C[C@@H]2CC[C@H]2[C@@H](O)/C=C/COC12CC2)C[C@@]1(CCCc2cc(Cl)ccc21)CO3` [Example 40, (3R,6R,7S,8E,22S)-6′-Chloro-7-hydroxy-12,12-ethylene-15,15-dioxo-spiro[11,20-dioxa-15-thia-1,14-diazatetracyclo[14.7.2.03,6.019,24]pentacosa[8,16(25),17,19(24)]tetraene-22,1′-tetralin]-13-one] the same measures were less than 1 nM and less than 500 nM.
As for `CC1(C)OC/C=C/[C@H](OC(=O)NC2CCOCC2)[C@@H]2CC[C@H]2CN2C[C@@]3(CCCc4cc(Cl)ccc43)COc3ccc(cc32)S(=O)(=O)NC1=O` [Example 185, [(3R,6R,7S,8E,22S)-6′-Chloro-12,12-dimethyl-13,15,15-trioxo-spiro[11,20-dioxa-15-thia-1,14-diazatetracyclo[14.7.2.03,6.019,24]pentacosa-8,16,18,24-tetraene-22,1′-tetralin]-7-yl] N-tetrahydropyran-4-ylcarbamate], the Ki on MCL-1 (class symbols) is less than 1 nM. Also, the IC50 in the assay on H929 cells was less than 500 nM.
`CO[C@@H]1CCN(C(=O)O[C@H]2/C=C/COC(C)(C)C(=O)NS(=O)(=O)c3ccc4c(c3)N(C[C@@H]3CC[C@H]32)C[C@@]2(CCOc3cc(Cl)ccc32)CO4)C1` [Example 266, [(3R,6R,7S,8E,22S)-7′-Chloro-12,12-dimethyl-13,155-trioxo-spiro[11,20-dioxa-15-thia-1,14-diazatetracyclo[14.7.2.03,6.019,24]pentacosa-8,16,18,24-tetraene-22,4′-chromane]-7-yl] (3R)-3-methoxypyrrolidine-1-carboxylate]: the Ki at MCL-1 (class symbols) was less than 1 nM. Further, the IC50 in the assay on H929 cells is less than 500 nM.
Take `CO[C@@H]1/C=C/CN[C@H](C)C(=O)NS(=O)(=O)c2ccc3c(c2)N(C[C@@H]2CC[C@H]21)C[C@@]1(CCCc2cc(Cl)ccc21)CO3` [Example 121, (3R,6R,7R,8E,12R,22S)-6′-Chloro-7-methoxy-12-methyl-15,15-dioxo-spiro[20-oxa-15-thia-1,11,14-triazatetracyclo[14.7.2.03,6.019,24]pentacosa-8,16(25),17,19(24)-tetraene-22,1′-tetralin]-13-one]: the Ki on MCL-1 (class symbols) was 1 to 100 nM. The IC50 in the assay on H929 cells is more than 1000 nM.
For `COC1CN(C(=O)O[C@H]2/C=C/CN(C)C3(CCC3)C(=O)NS(=O)(=O)c3ccc4c(c3)N(C[C@@H]3CC[C@H]32)C[C@@]2(CCCc3cc(Cl)ccc32)CO4)C1` [Example 238, [(3R,6R,7S,8E,22S)-6′-Chloro-11-methyl-12,12-(1,3-propylene)-13,15,15-trioxo-spiro[20-oxa-15-thia-1,11,14-triazatetracyclo[14.7.2.03,6.019,24]pentacosa-8,16,18,24-tetraene-22,1′-tetralin]-7-yl] 3-methoxyazetidine-1-carboxylate] the same measures were less than 1 nM and less than 500 nM.
`CC(C)(C)OC(=O)N1CCC[C@H](OC(=O)NS(=O)(=O)c2ccc3c(c2)N(CC2CCC2)CC2(CCCc4cc(Cl)ccc42)CO3)C1` (stereo partly drawn) [Example 23, tert-Butyl (3S)-3-[[6′-chloro-5-(cyclobutylmethyl)spiro[2,4-dihydro-1,5-benzoxazepine-3,1′-tetralin]-7-yl]sulfonylcarbamoyloxy]piperidine-1-carboxylate]: on MCL-1 (numeric values), the Ki was found to be 73.6 nM. In the assay on H929 cells, the IC50 is more than 1000 nM.
Consider `O=C(Cc1ccccc1)NS(=O)(=O)c1ccc2c(c1)N(CC1CCC1)CC1(CCCc3cc(Cl)ccc31)CO2` (stereo not shown) [Example 5, N-[6′-Chloro-5-(cyclobutylmethyl)spiro[2,4-dihydro-1,5-benzoxazepine-3,1′-tetralin]-7-yl]sulfonyl-2-phenyl-acetamide], for which the Ki on MCL-1 (numeric values) was found to be 37.3 nM. Moreover, the IC50 in the assay on H929 cells is more than 1000 nM.
As to `CN(C)C(=O)CO[C@H]1/C=C/COC(C)(C)C(=O)NS(=O)(=O)c2ccc3c(c2)N(C[C@@H]2CC[C@H]21)C[C@@]1(CCCc2cc(Cl)ccc21)CO3` [Example 140, 2-[(3R,6R,7S,8E,22S)-6′-Chloro-12,12-dimethyl-13,15,15-trioxo-spiro[11,20-dioxa-15-thia-1,14-diazatetracyclo[14.7.2.03,6.019,24]pentacosa-8,16,18,24-tetraene-22,1′-tetralin]-7-yl]oxy-N,N-dimethyl-acetamide], at MCL-1 (class symbols), the Ki was less than 1 nM. In addition, the IC50 with H929 cells was less than 500 nM.
Consider `CC1(C)OC/C=C/[C@H](OCC(=O)N2C[C@@H](F)[C@H](F)C2)[C@@H]2CC[C@H]2CN2C[C@@]3(CCCc4cc(Cl)ccc43)COc3ccc(cc32)S(=O)(=O)NC1=O` [Example 290, (3R,6R,7S,8E,22S)-6′-Chloro-7-[2-[(3R,4R)-3,4-difluoropyrrolidin-1-yl]-2-oxo-ethoxy]-12,12-dimethyl-15,15-dioxo-spiro[11,20-dioxa-15-thia-1,14-diazatetracyclo[14.7.2.03,6.019,24]pentacosa-8,16,18,24-tetraene-22,1′-tetralin]-13-one], for which, on MCL-1 (class symbols), the Ki is less than 1 nM. Further, the IC50 with H929 cells was less than 500 nM.
Regarding `CC(=O)NS(=O)(=O)c1ccc2c(c1)N(Cc1cnn(C)c1)CC1(CCCc3cc(Cl)ccc31)CO2` (stereo not shown) [Example 9, N-[6′-Chloro-5-[(1-methylpyrazol-4-yl)methyl]spiro[2,4-dihydro-1,5-benzoxazepine-3,1′-tetralin]-7-yl]sulfonylacetamide], on MCL-1 (numeric values), the Ki was 1640 nM. Further, the IC50 with H929 cells is more than 1000 nM.
Consider `CCN1C/C=C/[C@H](OC(=O)N(C)C)[C@@H]2CC[C@H]2CN2C[C@@]3(CCCc4cc(Cl)ccc43)COc3ccc(cc32)S(=O)(=O)NC(=O)C1(C)C` [Example 210, [(3R,6R,7S,8E,22S)-6′-Chloro-11-ethyl-12,12-dimethyl-13,15,15-trioxo-spiro[20-oxa-15-thia-1,11,14-triazatetracyclo[14.7.2.03,6.019,24]pentacosa-8,16,18,24-tetraene-22,1′-tetralin]-7-yl] N,N-dimethylcarbamate], for which the Ki on MCL-1 (class symbols) was less than 1 nM. Also, in the assay with H929 cells, the IC50 is less than 500 nM.
In the case of `CCN1C/C=C/[C@H](OC(=O)N2CC(N(C)C)C2)[C@@H]2CC[C@H]2CN2C[C@@]3(CCCc4cc(Cl)ccc43)COc3ccc(cc32)S(=O)(=O)NC(=O)C1(C)C` [Example 224, [(3R,6R,7S,8E,22S)-6′-Chloro-11-ethyl-12,12-dimethyl-13,15,15-trioxo-spiro[20-oxa-15-thia-1,11,14-triazatetracyclo[14.7.2.03,6.019,24]pentacosa-8,16,18,24-tetraene-22,1′-tetralin]-7-yl] 3-(dimethylamino)azetidine-1-carboxylate], the Ki on MCL-1 (class symbols) was less than 1 nM. Besides, the IC50 in the assay on H929 cells is less than 500 nM.
With `CN1C/C=C/[C@H](OC(=O)N[C@H]2CCOC2)[C@@H]2CC[C@H]2CN2C[C@@]3(CCCc4cc(Cl)ccc43)COc3ccc(cc32)S(=O)(=O)NC(=O)C12CCC2` [Example 295, [(3R,6R,7S,8E,22S)-6′-Chloro-11-methyl-12,12-(1,3-propylene)-13,15,15-trioxo-spiro[20-oxa-15-thia-1,11,14-triazatetracyclo[14.7.2.03,6.019,24]pentacosa-8,16,18,24-tetraene-22,1′-tetralin]-7-yl] N-[(3S)-tetrahydrofuran-3-yl]carbamate], the Ki at MCL-1 (class symbols) was 1 to 100 nM. In the assay on H929 cells, the IC50 is more than 1000 nM.
In the case of `CC1(C)OC/C=C/[C@H](OCCN2CC[C@H](F)C2)[C@@H]2CC[C@H]2CN2C[C@@]3(CCCc4cc(Cl)ccc43)COc3ccc(cc32)S(=O)(=O)NC1=O` [Example 265, (3R,6R,7S,8E,22S)-6′-Chloro-7-[2-[(3S)-3-fluoropyrrolidin-1-yl]ethoxy]-12,12-dimethyl-15,15-dioxo-spiro[11,20-dioxa-15-thia-1,14-diazatetracyclo[14.7.2.03,6.019,24]pentacosa-8,16,18,24-tetraene-22,1′-tetralin]-13-one], the Ki at MCL-1 (class symbols) is 1 to 100 nM. Also, the IC50 in the assay with H929 cells was less than 500 nM.
